The results in this text go back to patent publication US11613547B2 (priority 2019, dated 2023).

Assay [1] has as its target T1, mMOR (Mus musculus, UniProt P42866).
T1 construct: expressed in transfected cells
Nature of the assay: [35S]GTPγS functional assay, mMOR. It is filed as biochemical. (In general: GTPγS resists hydrolysis and so accumulates on activated G proteins.)

Assay [2] addresses T2, mKOR (Mus musculus, UniProt P33534).
T2 construct: expressed in transfected cells
Kind of assay: [35S]GTPγS functional assay, mKOR. Type of assay: biochemical.

Assay [3] addresses T3, mDOR (Mus musculus, UniProt P32300).
T3 construct: expressed in transfected cells
Nature of the assay: [35S]GTPγS functional assay, mDOR. It is filed as biochemical.

The target in assay [4] is T4, hMOR (Homo sapiens, UniProt P35372).
T4 construct: expressed in transfected cells; host or cells: HEK 293T (ATCC CRL-11268), transient
Kind of assay: cell-based. Type of assay: cell-based. The following applies: for Emax: HEK-293T, read-out: Gi Emax hMOR.

Assay [5] deals with T4, hMOR. Kind of assay: Tango β-arrestin recruitment assay, hMOR. Type of assay: cell-based. (Arrestin recruitment assays detect the binding of arrestin to an activated receptor.)
In assay [6] the target is T5, hKOR (Homo sapiens, UniProt P41145).
T5 construct: expressed in transfected cells; host or cells: HEK 293T (ATCC CRL-11268), transient
Kind of assay: cAMP inhibition assay (GloSensor, HEK 293T), hKOR. Type of assay: cell-based. The note with it: for Emax: HEK-293T, read-out: Gi Emax hKOR; for Bias factor toward G protein, hKOR: cAMP inhibition vs Tango, against U50,488H as control; for EC50 / Gi pEC50±SEM hKOR: cAMP inhibition; for EC50: read-out: Gi EC50 hKOR.

For assay [7], the target named is T5, hKOR. Kind of assay: Tango β-arrestin recruitment assay, hKOR. The following applies: for EC50 / Arrestin pEC50±SEM hKOR: Tango, WT-hKOR. It is filed as cell-based.
The target in assay [8] is T6, mouse mu opioid receptor (mMOR) (Mus musculus, UniProt P42866).
T6 construct: expressed in transfected cells; host or cells: HEK-293T, transient (PEI), with BRET sensor cDNAs
Nature of the assay: cell-based. It is filed as cell-based. The note with it: for Emax: read-out: Gi Emax mMOR.

Assay [9] concerns the target T6, mouse mu opioid receptor (mMOR). Nature of the assay: cell-based. Type of assay: cell-based.
Assay [10] deals with T7, rat kappa opioid receptor (rKOR) (Rattus norvegicus, UniProt P34975).
T7 construct: expressed in transfected cells; host or cells: HEK-293T, transient (PEI), with BRET sensor cDNAs
Nature of the assay: BRET assay, G-protein activation, rKOR. Type of assay: cell-based. The note with it: for Emax: read-out: Gi Emax rKOR. A general note: BRET reads energy transfer from a luciferase to a nearby fluorophore.

Assay [11] addresses T7, rat kappa opioid receptor (rKOR). Kind of assay: BRET assay, arrestin recruitment, rKOR. It is filed as cell-based.
In assay [12] the target is T8, mouse delta opioid receptor (mDOR) (Mus musculus, UniProt P32300).
T8 construct: expressed in transfected cells; host or cells: HEK-293T, transient (PEI), with BRET sensor cDNAs
Nature of the assay: BRET assay, G-protein activation, mDOR. Type of assay: cell-based. The following applies: for Emax: read-out: G-Protein activation Emax % ± SEM.

Assay [13] concerns the target T8, mouse delta opioid receptor (mDOR). Kind of assay: BRET assay, arrestin recruitment, mDOR. Type of assay: cell-based.
For assay [14], the target named is T9, hDOR (Homo sapiens, UniProt P41143). Kind of assay: cAMP inhibition assay, hDOR. On the set-up: expressed in transfected cells. Type of assay: cell-based. The following applies: for Emax: read-out: cAMP inhibition Emax % ± SEM.
In assay [15] the target is T10, Y312W-hKOR (Homo sapiens, UniProt P41145, Y312W). Nature of the assay: Tango-arrestin recruitment assay, Y312W-hKOR mutant. On the set-up: expressed in transfected cells. Type of assay: cell-based.
Assay [16] deals with T9, hDOR. Nature of the assay: Tango β-arrestin recruitment assay, hDOR. It is filed as cell-based. The note with it: for Emax: read-out: Arrestin recruitment Emax % ± SEM. Also on record: expressed in transfected cells; host or cells: HTLA cells expressing TEV fused-beta-Arrestin2.
The target of assay [17] is T10, Y312W-hKOR. Kind of assay: cAMP inhibition assay, Y312W-hKOR mutant. Type of assay: cell-based. Also on record: expressed in transfected cells; host or cells: HEK 293T (inferred from the general cAMP method).
Assay [18] concerns the target T1, mMOR. Kind of assay: Radioligand competition binding ([125I]IBNtxA), CHO membranes, mMOR. The note with it: vs 125IBNtxA (0.1 nM), mean ± SEM.
In assay [19] the target is T2, mKOR. Nature of the assay: Radioligand competition binding ([125I]IBNtxA), CHO membranes, mKOR. The note with it: vs 125IBNtxA (0.1 nM), mean ± SEM.
Assay [20] concerns the target T3, mDOR. Nature of the assay: Radioligand competition binding ([125I]IBNtxA), CHO membranes, mDOR. The note with it: vs 125IBNtxA (0.1 nM), CHO membranes, mean ± SEM.

Several values for one entry are separate records, joined by “and”; a condition that tells them apart may be missing. Equal entries are not always repeated. Entries after “also recorded” stand apart in the source; their conditions may differ. Where two headings read alike, the source gives them in different places.

Usually Emax stands for the greatest response seen or fitted, relative to the assay's reference. `O=C(N[C@@H]1CCC2C3Cc4ccc(O)c5c4C2(CCN3CC2CC2)C1O5)c1cccc(I)c1` (stereo partly drawn) [MP1202, N-((7R,1265)-3-(Cyclopropylmethyl)-9-hydroxy-2,3,4,4a,5,6,7,7a-octahydro-1H-4,12-methanobenzofuro[3,2-e]isoquinolin-7-yl)-3-iodobenzamide]: the Emax at mMOR [1] came out at 68 ± 1%; at mKOR [2], 94 ± 5%; on mDOR [3], 71 ± 2%; at hMOR [4], 92 ± 1.4%; on hMOR [5], 53 ± 2%; on hKOR [6], 110 ± 1%. The Emax at hKOR [7] worked out at 101 ± 1%; in assay [8], 61 ± 1.5%; in [9] (read-out: Arrestin Emax mMOR), 53 ± 1.6%; in assay [10], 104 ± 2%; in [11] it was 77 ± 5%; in assay [12] it was 103 ± 4.6%. The Emax is 26 ± 2.3% in [13] (read-out: Arrestin recruitment Emax % ± SEM); 99 ± 2.2% on hDOR [14]; 55 ± 2.6% on Y312W-hKOR [15]; 26 ± 3.1% at hDOR [16]; 101 ± 1.5% on Y312W-hKOR [17] (read-out: Gi Emax Y312W-hKOR). For the same molecule, the “Bias factor toward G protein, hMOR” value at hMOR [4] came out at 31. Further, the EC50 came to 0.077 nM on hMOR [4]; 26.8 nM on hMOR [5] (Tango); 0.0016 nM on hKOR [6]; 0.0457 nM on hKOR [7]; 0.134 nM in [10] (BRET, read-out: Gi EC50 rKOR); 1.44 nM in [11] (BRET). The EC50 was 525 nM in [13] (mDOR, BRET); 8.18 nM at hDOR [14] (hDOR); 3.4 nM on Y312W-hKOR [15] (Tango); 18.1 nM at hDOR [16] (hDOR, Tango); 0.0204 nM at Y312W-hKOR [17] (cAMP inhibition, read-out: Gi pEC50±SEM Y312W-hKOR (converted)). On hKOR [6], the “Bias factor toward G protein, hKOR” value came out at 0.6. The “Bias factor toward G-protein, mMOR” value in assay [8] is given as 58. Further, the “Bias factor toward G-protein, rKOR” value in [10] (BRET assays, against U50,488H as control) was 0.39 and 0.4. Besides, the “arrestin recruitment at Y312W-hKOR” value at Y312W-hKOR [15] (Tango, compared with wild-type KOR) is “reduced arrestin recruitment”. In addition, the “Bias factor toward G-protein, Y312W-hKOR” value at Y312W-hKOR [17] (cAMP inhibition vs Tango, against U50,488H as control) was 33 and 34.

In the case of `NCc1ccc(C(=O)N[C@@H]2CC[C@H]3[C@H]4Cc5ccc(O)c6c5[C@@]3(CCN4CC3CC3)[C@H]2O6)cc1` [MP1209, 4-(aminomethyl)-N-((4R,4aR,7R,7aR,12bS)-3-(cyclopropylmethyl)-9-hydroxy-2,3,4,4a,5,6,7,7a-octahydro-1H-4,12-methano[1]benzofuro[3,2-e]isoquinolin-7-yl)benzamide], on hMOR [4], the “Gi pEC50±SEM hMOR” value worked out at 9.61±0.04 and the Emax is 98.5 ± 0.96%. Also, the EC50 on hMOR [4] (read-out: Gi EC50 hMOR) turned out to be 0.25 nM. The “arrestin recruitment at hMOR” value at hMOR [5] (Tango) is listed as “null arrestin recruitment; also recorded: no arrestin recruitment was observed”. Moreover, at hKOR [6], the maximal effect (Emax) is 100 ± 1.23%; the “Gi pEC50±SEM hKOR” value is 10.6±0.05; the “Bias factor toward G protein, hKOR” value is 0.6; the EC50 amounted to 0.024 nM. In addition, at hKOR [7], the maximal effect (Emax) stood at 67 ± 3%, the “Arrestin pEC50±SEM hKOR” value amounted to 9.43±0.19 and the EC50 is 0.37 nM.

On to `O=C(N[C@@H]1CC[C@H]2[C@H]3Cc4ccc(O)c5c4[C@@]2(CCN3CC2CC2)[C@H]1O5)c1cccc(CO)c1` [MP1210, N-((4R,4aR,7R,7aR,12bS)-3-(cyclopropylmethyl)-9-hydroxy-2,3,4,4a,5,6,7,7a-octahydro-1H-4,12-methano[1]benzofuro[3,2-e]isoquinolin-7-yl)-3-(hydroxymethyl)benzamide], for which, at hMOR [4], the “Gi pEC50±SEM hMOR” value was 9.81±0.05 and the maximum response (Emax) is 94.6 ± 0.98%. In addition, the EC50 at hMOR [4] (read-out: Gi EC50 hMOR) is 0.15 nM. Also, the “arrestin recruitment at hMOR” value at hMOR [5] (Tango) is reported as “null arrestin recruitment; also recorded: no arrestin recruitment was observed”. On hKOR [6], the Emax was found to be 101 ± 1.1%; the “Gi pEC50±SEM hKOR” value was determined as 10.6±0.05; the “Bias factor toward G protein, hKOR” value amounted to 1.2. At hKOR [7], the maximum response (Emax) was 63 ± 3.3% and the “Arrestin pEC50±SEM hKOR” value was 8.94±0.17.

One may read the Ki as the dissociation constant of the complex between target and ligand, obtained from inhibition or displacement. Low values mean tighter binding, high ones weaker binding. For `CO[C@@]12CC[C@@H](NC(=O)c3cccc(I)c3)C3Oc4c(O)ccc5c4[C@@]31CCN(CC1CC1)C2C5` (stereo partly drawn) [MP1305, N-((4aS,7R,12bS)-3-(Cyclopropylmethyl)-9-hydroxy-4a-methoxy-2,3,4,4a,5,6,7,7a-octahydro-1H-4,12-methanobenzofuro[3,2-e]isoquinolin-7-yl)-3-iodobenzamide], the Ki at mMOR [18] was found to be 0.25 ± 0.02 nM; on mKOR [19] it was 2.5 ± 0.3 nM; at mDOR [20] it was 11.7 ± 1.4 nM. The maximal effect (Emax) at mMOR [1] is 81.2 ± 16%; at mKOR [2], 42.2 ± 5.3%; at mDOR [3], 22 ± 0.9%; on hMOR [4] it was 69 ± 1.8%; at hMOR [5] it was 21 ± 3%; on hKOR [6], 102 ± 1.2%. Also, the maximal response (Emax) on hKOR [7] was found to be 75 ± 1%; in assay [8] it was 72 ± 2%; in assay [10] it was 35 ± 3%; in assay [12] it was 105 ± 5.9%; at hDOR [14] it was 71 ± 2.4%; on hDOR [16], 89 ± 2.8%. The EC50 at mMOR [1] ([35S]GTPγS, nM ± SEM) was found to be 0.7 ± 0.1 nM; on mKOR [2] ([35S]GTPγS, nM ± SEM), 7.4 ± 1.8 nM; on mDOR [3] ([35S]GTPγS, nM ± SEM), 31.7 ± 3.6 nM; on hMOR [4] (read-out: Gi EC50 hMOR), 0.12 nM; on hMOR [5] (Tango), 16.4 nM; at hKOR [7], 25.7 nM. For the same molecule, the EC50 stood at 0.74 nM in [8] (read-out: Gi EC50 mMOR); 40.4 nM in assay [12] (mDOR, BRET); 74.2 nM at hDOR [14] (hDOR); 228 nM on hDOR [16] (hDOR, Tango). Also, at hMOR [4], the “Bias factor toward G protein, hMOR” value came to 11. Moreover, the “Gi pEC50±SEM hMOR” value at hMOR [4] is reported as 9.9±0.12. On hMOR [5] (Tango), the “Arrestin pEC50±SEM hMOR” value was 7.8±0.3. On hKOR [6], the “Gi pEC50±SEM hKOR” value is given as 9.14±0.05. Further, at hKOR [6], the “Bias factor toward G protein, hKOR” value amounted to 4. For the same molecule, the “Arrestin pEC50±SEM hKOR” value on hKOR [7] worked out at 7.6±0.04. Also, the “Gi pEC50±SEM mMOR” value in assay [8] is 9.1±0.12. Besides, in assay [9], the “arrestin recruitment at mMOR” value was “no arrestin recruitment was observed”. In assay [10] (BRET), the “Gi pEC50±SEM rKOR” value turned out to be 8.3±0.32. Further, the “arrestin recruitment at rKOR” value in [11] (BRET) is listed as “no arrestin recruitment was observed”. Moreover, the “G-Protein activation pEC50 ± SEM” value in assay [12] (mDOR, BRET) is reported as 7.4 ± 0.20. Besides, the “cAMP inhibition pEC50 ± SEM” value on hDOR [14] (hDOR) turned out to be 7.1 ± 0.08. The “Arrestin recruitment pEC50 ± SEM” value at hDOR [16] (hDOR, Tango) worked out at 6.6 ± 0.06.
